Test results as given in the NIST ThermoML archive (doi:10.1016/j.jct.2012.03.034).
± gives the expanded uncertainty stated by the source.

Experiment: xn = mol fraction of the nth substance listed
Conditions: 101 kPa, Liquid; for speed of sound: Linear variable-path acoustic interferometer; for mass density: Vibrating tube method; for viscosity: dual vibrating plate viscometer, AandD Co. Ltd Model SV-10

CC[NH+](CC)CC.O=S(=O)([O-])O [triethylammonium hydrogen sulfate] + CN1CCCC1=O
Conditions	mass density [kg/m3]	speed of sound [m/s]	viscosity [mPa·s]
298.15 K, x1 = 0.0115	1032.8 ± 0.61	1575 ± 2	3.39 ± 0.11
298.15 K, x1 = 0.0234	1038.22 ± 0.45	1585 ± 2	4.63 ± 0.1
298.15 K, x1 = 0.0632	1050.09 ± 0.44	1610 ± 2	4.46 ± 0.09
298.15 K, x1 = 0.0927	1059.1 ± 0.43	1627 ± 2	4.81 ± 0.1
298.15 K, x1 = 0.1387	1070.98 ± 0.4	1658 ± 2	4.99 ± 0.11
298.15 K, x1 = 0.2259	1088.61 ± 0.39	1710 ± 2	8.89 ± 0.22
298.15 K, x1 = 0.2631	1094.64 ± 0.38	1734 ± 2	19.46 ± 0.52
298.15 K, x1 = 0.3261	1103.78 ± 0.37	1770 ± 2	40.98 ± 0.96
298.15 K, x1 = 0.4478	1116.87 ± 0.37	1823 ± 2	96.22 ± 2.1
298.15 K, x1 = 0.5947	1127.01 ± 0.37	1871 ± 2	163.18 ± 3.4
298.15 K, x1 = 0.7717	1135 ± 0.37	1893 ± 2	229.32 ± 4.8
298.15 K, x1 = 0.9017	1139.74 ± 0.37	1885 ± 2	245.82 ± 5.1
298.15 K, x1 = 0.9497	1141.23 ± 0.37	1879 ± 2	242.86 ± 5
298.15 K, x1 = 1	1142.89 ± 0.37	1874 ± 2	235 ± 5
303.15 K, x1 = 0.0115	1029.6 ± 0.54	1559 ± 2	1.09 ± 0.06
303.15 K, x1 = 0.0234	1033.96 ± 0.45	1569 ± 2	1.26 ± 0.03
303.15 K, x1 = 0.0632	1046.49 ± 0.44	1594 ± 2	1.97 ± 0.04
303.15 K, x1 = 0.0927	1054.51 ± 0.42	1613 ± 2	1.09 ± 0.03
303.15 K, x1 = 0.1387	1066.39 ± 0.4	1646 ± 2	2.15 ± 0.05
303.15 K, x1 = 0.2259	1084.19 ± 0.39	1699 ± 2	4.28 ± 0.11
303.15 K, x1 = 0.2631	1090.49 ± 0.38	1724 ± 2	8.71 ± 0.27
303.15 K, x1 = 0.3261	1099.54 ± 0.37	1761 ± 2	24.33 ± 0.59
303.15 K, x1 = 0.4478	1112.6 ± 0.37	1818 ± 2	66.28 ± 1.4
303.15 K, x1 = 0.5947	1123.51 ± 0.37	1867 ± 2	119.65 ± 2.5
303.15 K, x1 = 0.7717	1132.09 ± 0.37	1891 ± 2	168.61 ± 3.5
303.15 K, x1 = 0.9017	1137.34 ± 0.37	1886 ± 2	175.33 ± 3.6
303.15 K, x1 = 0.9497	1139.47 ± 0.37	1881 ± 2	168.86 ± 3.5
303.15 K, x1 = 1	1141.83 ± 0.37	1871 ± 2	153 ± 3
308.15 K, x1 = 0.0115	1024.16 ± 0.5	1541 ± 2	1.08 ± 0.04
308.15 K, x1 = 0.0234	1028.44 ± 0.44	1552 ± 2	0.73 ± 0.02
308.15 K, x1 = 0.0632	1040.72 ± 0.43	1574 ± 2	–
308.15 K, x1 = 0.0927	1048.71 ± 0.42	1595 ± 2	–
308.15 K, x1 = 0.1387	1060.66 ± 0.4	1628 ± 2	–
308.15 K, x1 = 0.2259	1078.74 ± 0.39	1682 ± 2	–
308.15 K, x1 = 0.2631	1085.15 ± 0.38	1707 ± 2	7.75 ± 0.29
308.15 K, x1 = 0.3261	1094.3 ± 0.37	1746 ± 2	23.71 ± 0.59
308.15 K, x1 = 0.4478	1107.95 ± 0.37	1806 ± 2	66.53 ± 1.4
308.15 K, x1 = 0.5947	1119.05 ± 0.37	1862 ± 2	116.6 ± 2.4
308.15 K, x1 = 0.7717	1128.8 ± 0.37	1892 ± 2	161.59 ± 3.3
308.15 K, x1 = 0.9017	1135.26 ± 0.37	1887 ± 2	165.14 ± 3.4
308.15 K, x1 = 0.9497	1137.73 ± 0.37	1880 ± 2	156.95 ± 3.2
308.15 K, x1 = 1	1140.72 ± 0.37	1866 ± 2	138 ± 3
313.15 K, x1 = 0.0115	1019.77 ± 0.47	1535 ± 2	1.97 ± 0.05
313.15 K, x1 = 0.0234	1023.04 ± 0.42	1547 ± 2	0.71 ± 0.02
313.15 K, x1 = 0.0632	1034.66 ± 0.43	1573 ± 2	0.73 ± 0.02
313.15 K, x1 = 0.0927	1043.09 ± 0.42	1592 ± 2	0.2 ± 0.01
313.15 K, x1 = 0.1387	1055.07 ± 0.4	1624 ± 2	–
313.15 K, x1 = 0.2259	1072.51 ± 0.39	1681 ± 2	1.97 ± 0.07
313.15 K, x1 = 0.2631	1079.29 ± 0.38	1706 ± 2	7.8 ± 0.26
313.15 K, x1 = 0.3261	1088.65 ± 0.37	1748 ± 2	22.1 ± 0.54
313.15 K, x1 = 0.4478	1102.48 ± 0.37	1809 ± 2	60.67 ± 1.3
313.15 K, x1 = 0.5947	1114.67 ± 0.37	1865 ± 2	104.9 ± 2.2
313.15 K, x1 = 0.7717	1125.81 ± 0.37	1894 ± 2	142.04 ± 2.9
313.15 K, x1 = 0.9017	1133.51 ± 0.37	1884 ± 2	141.04 ± 2.9
313.15 K, x1 = 0.9497	1136.49 ± 0.38	1878 ± 2	131.02 ± 2.7
313.15 K, x1 = 1	1140.02 ± 0.37	1859 ± 2	108 ± 2
